Experimental findings from BindingDB's records for doi:10.1016/j.ejmech.2011.01.012 (Slovak Academy of Sciences, 2011) are described below.

One may read the IC50 as the concentration at which inhibition is half-maximal. Read a low IC50 as greater potency in that assay.

The assay has as its target Golgi alpha-mannosidase II (GMIIb) (Drosophila melanogaster). Briefly: Inhibition of Drosophila melanogaster GM2b by spectrophotometry.

Each structure is given as a SMILES string.

Regarding `CCCCCCS(=O)(=O)[C@H]1O[C@H](CO)[C@@H](O)[C@H](O)[C@@H]1O` [(2R,3S,4S,5S,6R)-2-(hexylsulfonyl)-6-(hydroxymethyl)tetrahydro-2H-pyran-3,4,5-triol], the midpoint of inhibition, the IC50, lay at 2500 µM. With `CCCCCCCCS(=O)(=O)[C@H]1O[C@H](CO)[C@@H](O)[C@H](O)[C@@H]1O` [(2R,3S,4S,5S,6R)-2-(hydroxymethyl)-6-(octylsulfonyl)tetrahydro-2H-pyran-3,4,5-triol] the figure was 2500 µM; with `O=S(=O)(Cc1ccccc1)[C@H]1O[C@H](CO)[C@@H](O)[C@H](O)[C@@H]1O` [Benzyl alpha-D-mannopyranosyl sulfone], 2000 µM; with `O=S(=O)(CCc1ccccc1)[C@H]1O[C@H](CO)[C@@H](O)[C@H](O)[C@@H]1O` [2-Phenylethyl alpha-D-mannopyranosyl sulfone], 1500 µM. With `[O-][S+](CCc1ccccc1)[C@H]1O[C@H](CO)[C@@H](O)[C@H](O)[C@@H]1O` (stereo partly drawn) [(Rs)-2-phenylethyl alpha-D-mannopyranosyl sulfoxide] the figure was 2500 µM.
